This note sets out measurements from patent US10987354B2, “Inhibitors of influenza virus replication and uses thereof” (SUNSHINE LAKE PHARMA CO., LTD., priority 2016, dated 2021).

One data set has as its system virus H1N1 A/Weiss/43. In words: microbe, parasite or virus in culture. The class given is cell-based. The note with it: Influenza A virus, H1N1, 120 h; MDCK cells, CPE, 5 days, CCK-8; read-out: EC50, inhibitory activity against influenza virus (A/Weiss/43(H1N1)).
The subject of data set [1] is Influenza B virus-B/Lee/40. In words: microbe, parasite or virus in culture. Format: cell-based. The note with it: 72 h, read-out: EC50, inhibitory activity against influenza virus (Influenza B virus-B/Lee/40).
A short description of the next data set: in vivo. The note with it: SD, rat.
Where [2] appears, read: MDCK cells, CPE, 3 days, CellTiter.

Read-outs that look alike come from different tables or passages of the source.

Experimental for in vivo: The compounds disclosed herein were administered in form of a saline solution containing 5% DMSO, 5% Kolliphor HS 15 and 90% Saline. For intravenous administration (iv), the animals were administered with a dose of 1 mg/kg, and blood samples (0.3 mL) were collected at the time points of 0.083, 0.25, 0.5, 1.0, 2.0, 5.0, 7.0 and 24 h after drug administration, then each blood sample was processed to separate plasma by centrifugation at 3000 rpm or 4000 rpm for 10 minutes. For oral administration (po), the animals were administered with a dose of 5 mg/kg, and blood samples (0.3 mL) were collected at the time points of 0.25, 0.5, 1.0, 2.0, 5.0, 7.0 and 24 h after drug administration, then each blood sample was processed to separate plasma by centrifugation at 3000 rpm or 4000 rpm for 10 minutes. Plasma samples were collected and stored at −20° C. or −70° C. until LC/MS/MS analysis.

Regarding `CC(C)n1ccc2c(N[C@H]3C4CCC(CC4)[C@@H]3C(=O)O)nc(-c3c[nH]c4ncc(Cl)nc34)nc21` [Example 20, (2S,3S)-3-((2-(2-chloro-5H-pyrrolo[2,3-b]pyrazin-7-yl)-7-isopropyl-7H-pyrrolo[2,3-d]pyrimidin-4-yl)amino)bicyclo[2.2.2]octane-2-carboxylic Acid], the results for the EC50 (in the data set with virus H1N1 A/Weiss/43; in data set [1] (setting [2])) were 0.192 nM and 1620 nM, respectively.
For `O=C(O)[C@H]1C2CCC(CC2)[C@@H]1Nc1nc(-c2c[nH]c3ncc(Cl)nc23)nc(-n2cccc2)c1F` [Example 60, (2S,3S)-3-((2-(2-chloro-5H-pyrrolo[2,3-b]pyrazin-7-yl)-5-fluoro-6-(1H-pyrrol-1-yl)pyrimidin-4-yl)amino)bicyclo[2.2.2]octane-2-carboxylic Acid], the EC50 in data set [1] (setting [2]) was found to be 26400 nM.
Consider `O=C(O)[C@H]1C2CCC(CC2)[C@@H]1Nc1nc(-c2c[nH]c3ncc(Cl)nc23)nc(-c2ccc(F)s2)c1F` [Example 62, (2S,3S)-3-((2-(2-chloro-5H-pyrrolo[2,3-b]pyrazin-7-yl)-5-fluoro-6-(5-fluorothiophen-2-yl)pyrimidin-4-yl)amino)bicyclo[2.2.2]octane-2-carboxylic Acid], for which, in the data set on virus H1N1 A/Weiss/43, the EC50 came out at 0.011 nM. In addition, in the data set “in vivo” (iv, 1 mg/kg), the AUC(0-inf) came to 5510 ng·h/mL, the AUC(0-t) came to 5390 ng·h/mL and the clearance was 50.7 mL/min/kg. For the same compound, in “in vivo” (po, 5 mg/kg), the AUC(0-inf) worked out at 25000 ng·h/mL and the AUC(0-t) was determined as 24400 ng·h/mL.
As for `CC(C)Cn1ccc2c(N[C@H]3C4CCC(CC4)[C@@H]3C(=O)O)nc(-c3c[nH]c4ncc(Cl)nc34)nc21` [Example 66, (2S,3S)-3-((2-(2-chloro-5H-pyrrolo[2,3-b]pyrazin-7-yl)-7-isobutyl-7H-pyrrolo[2,3-d]pyrimidin-4-yl)amino)bicyclo[2.2.2]octane-2-carboxylic Acid], the EC50 in the data set with virus H1N1 A/Weiss/43 was 0.274 nM. In the data set “in vivo” (iv, 1 mg/kg), the AUC(0-inf) came to 3480 ng·h/mL, the AUC(0-t) was determined as 3470 ng·h/mL and the clearance was 82.5 mL/min/kg. In addition, in the data set “in vivo” (po, 5 mg/kg), the AUC(0-inf) came out at 12600 ng·h/mL and the AUC(0-t) turned out to be 12500 ng·h/mL.
For `O=C(O)C1C2CCC(CC2)C1Nc1nc(-c2c[nH]c3ncc(F)cc23)ncc1F` (stereo not shown) [JNJ-872, reference compound], in data set [1] (MDCK), the EC50 was > 50000 nM.
